{
  "source": "patent US20060292213A1",
  "about": "“Enoximone formulations and their use in the treatment of PDE-III mediated diseases” (Myogen, Inc., priority 2004, published 2006)",
  "key": {"[1]": {"system": "spontaneously hypertensive rats", "assay": "Anti-hypertensive activity, cannulated conscious female spontaneously hypertensive rats (Example 1)", "assay_type": "in vivo, rat", "settings": "45 and 60 minute time points, 100 mg/kg and 30 mg/kg groups; statistically significant", "method": "Female spontaneously hypertensive rats were anesthetized and cannulated. The end of the cannula was exteriorized through the skin for measurement of arterial blood pressure. Approximately 30 minutes after the rats regained consciousness, the experiment began. Mean blood pressure and heart rate were recorded 15 minutes prior to drug administration, at the time of administration, and 15, 30, 45 and 60 minutes following administration. Drug was administered at a variety of dosages. A statistically significant decrease in blood pressure of ˜42% was measured at the 45 and 60 minute time points for the 100 mg/kg and 30 mg/kg groups."}, "[2]": {"system": "spontaneously hypertensive rats", "assay": "Anti-hypertensive activity, spontaneously hypertensive rats, single dose (Example 2)", "assay_type": "in vivo, rat", "settings": "for blood pressure (mean arterial): vehicle 169+/−7.9", "method": "Spontaneously hypertensive rats were divided into groups and treated with vehicle or a single dose of 10, 30 or 100 mg/kg of enoximone. Mean arterial blood pressure and heart rate were recorded before and at 15, 30, 45 and 60 minutes after treatment. Blood pressure decreased in all drug treatment groups."}, "anesthetized dogs": {"system": "anesthetized dogs", "assay": "Cardiorenal hemodynamics, i.v. infusion in anesthetized dogs (Example 3)", "assay_type": "in vivo, dog"}, "Mongrel dogs": {"system": "Mongrel dogs", "assay": "Coronary blood flow, anesthetized mongrel dogs, electromagnetic flow probe (Example 5)", "assay_type": "in vivo, dog", "method": "Mongrel dogs were anesthetized and given bolus injections of enoximone and coronary blood flow was measured using a Stratham electromagnetic flow probe, Model SP-7516-606-214, placed around the circumflex branch of the left coronary artery near its origin. The flow probe was connected to a Stratham Model SP2202 electromagnetic flow meter which was connected to a Grass Model 7P1 low level DC preamplifier. All recordings were made on a Grass Model 7B or […] polygraph."}, "perfused hindlimb": {"system": "perfused hindlimb", "assay": "Arteriolar resistance, pump perfused hindlimb preparation (Example 6)", "assay_type": "in vivo, dog", "source_text": "The pump perfused hindlimb preparation permits the in vivo determination of the direct vascular effects of a compound. Dogs were anesthetized and allowed to respire sponatenously. The branchial artery and vein were cannulated and a catheter was passed down the left carotid artery into the left ventricle. […]"}, "[3]": {"system": "subjects displaying chronic stable angina", "assay": "Double blind placebo controlled cross over trial in chronic stable angina (Example 7)", "assay_type": "in vivo, human", "settings": "single oral dose 75 mg", "method": "A double blind placebo controlled cross over trial of enoximone was done with 20 subjects displaying chronic stable angina. Enoximone as a single oral dose (75 mg) was compared with placebo."}, "[4]": {"system": "human platelet aggregation", "assay": "Human platelet aggregation in platelet rich plasma, aggregometer (Example 8)", "assay_type": "cell-based", "settings": "5 min, PRP incubated 5 minutes at room temperature", "method": "Substances which increase platelet cAMP levels are known to inhibit platelet aggregation. Blood was taken from human donors not on aspirin or taking any aspirin-containing substances (or other nonsteroidal anti-inflammatory drugs) for at least two weeks prior to donation. […] PRP was exposed only to plastic laboratory ware. All experiments were completed within 3 hours. PRP was incubated for 5 minutes at room temperature with enoximone prior to the addition of any aggregating agent. Aggregation was monitored by continuous recording of light transmittance in a Chrono-log dual-channel aggregometer (Chrono-log Corp.) in atotal volume of 0.5 ml PRP. Aggregating substances used were ADP (5 μM), collagen […] and arachidonic acid (2 μg/ml) (Chrono-log Corp.). Enoximone ([…]) inhibited platelet aggregation in a concentration dependent manner. […] It was also ruled out that enoximone was inhibiting aggregation by somehow inhibiting the metabolism of arachidonic acid as measured by HPLC and RIA."}, "normal human volunteers": {"system": "normal human volunteers", "assay": "Renal function and plasma volume in normal human volunteers (Example 4)", "settings": "single I.V. dose 2.5 mg/kg, then 200 mg t.i.d. for 5 days"}, "men who suffer from ED": {"system": "men who suffer from ED", "settings": "ED of psychogenic or organic etiology; cited from earlier work"}, "PDE-III": {"system": "PDE-III", "settings": "cited from earlier work"}, "[5]": {"system": "patients with primary thrombocythemia and thrombocytosis", "settings": "used to lower platelet counts; cited from earlier work"}},
  "note": "Where two headings read alike, the source gives them in different places.",
  "data": [
    {"molecule": "CSc1ccc(C(=O)c2[nH]c(=O)[nH]c2C)cc1", "note": "[Enoximone, 1,3-Dihydro-4-methyl-5-[4-(methylthio)benzoyl]-2H-imidazol-2-one]", "values": [
      {"measurement": "decrease in blood pressure", "setting": "[1]", "value": "~42", "unit": "%"},
      {"measurement": "blood pressure (mean arterial)", "setting": "[2]; 45 minutes, 30 mg/kg, non-significant", "value": "151+/−9"},
      {"measurement": "blood pressure (mean arterial)", "setting": "[2]; 60 minutes, 30 mg/kg, non-significant", "value": "142+/−8"},
      {"measurement": "blood pressure (mean arterial)", "setting": "[2]; 60 minutes, 100 mg/kg, significant", "value": "100+/−9.7"},
      {"measurement": "blood pressure, change in words", "setting": "[2]; all drug treatment groups (10, 30 or 100 mg/kg)", "value": "decreased"},
      {"measurement": "heart rates", "setting": "[2]; all groups (10, 30 or 100 mg/kg)", "value": "unchanged"},
      {"measurement": "blood pressure", "setting": "anesthetized dogs; 30 μg/kg/min i.v. infusion", "value": "decreasing"},
      {"measurement": "cardiac contractile force", "setting": "anesthetized dogs; 30 μg/kg/min i.v. infusion", "value": "increasing"},
      {"measurement": "glomerular filtration", "setting": "anesthetized dogs; 100 μg/kg/min i.v. infusion", "value": "unchanged"},
      {"measurement": "increase in renal blood flow", "setting": "anesthetized dogs; 100 μg/kg/min i.v. infusion", "value": "15-20%"},
      {"measurement": "renal vascular resistance", "setting": "anesthetized dogs; 100 μg/kg/min i.v. infusion", "value": "measurable decreases"},
      {"measurement": "increase in coronary blood flow", "setting": "Mongrel dogs; bolus injection 0.1 mg/kg", "value": "12+/−2%"},
      {"measurement": "increase in coronary blood flow", "setting": "Mongrel dogs; bolus injection 1 mg/kg", "value": "41+/−6%"},
      {"measurement": "decrease in hind limb perfusion pressure", "setting": "perfused hindlimb; 0.3 mg/kg", "value": "11+/−2%"},
      {"measurement": "decrease in hind limb perfusion pressure", "setting": "perfused hindlimb; 3 mg/kg", "value": "25+/−2%"},
      {"measurement": "total exercise duration, mean difference versus placebo", "setting": "[3]; significantly longer than placebo", "value": 22.8, "unit": "s"},
      {"measurement": "time to onset of angina and development of significant ST-segment decrease, versus placebo", "setting": "[3]; trends in favor of enoximone", "value": "similar"},
      {"measurement": "IC50", "setting": "[4]; ADP (5 μM), read-out: IC50 for ADP induced aggregation", "value": 20.9, "unit": "µg/mL"},
      {"measurement": "IC50", "setting": "[4]; arachidonic acid (2 μg/ml), read-out: IC50 for arachidonic acid induced aggregation", "value": 0.24, "unit": "µg/mL"},
      {"measurement": "IC50", "setting": "[4]; collagen (1.0 mM), read-out: IC50 for collagen induced aggregation", "value": 36.3, "unit": "µg/mL"},
      {"measurement": "renal function", "setting": "normal human volunteers", "value": "no impairment"}
    ]},
    {"molecule": "CCCc1nn(C)c2c(=O)[nH]c(-c3cc(S(=O)(=O)N4CCN(C)CC4)ccc3OCC)nc12", "note": "[Sildenafil, 5-[2-ethoxy-5-(4-methylpiperazin-1-ylsulphonyl)phenyl]-1-methyl-3-n-propyl-6,7-dihydro-1H-pyrazolo[4,3-d]pyrimidin-7-one]", "values": [
      {"measurement": "men with improved sexual function", "setting": "men who suffer from ED", "value": "about 70%"},
      {"measurement": "inhibition of PDE-III", "setting": "PDE-III", "value": "negligible inhibition"}
    ]},
    {"molecule": "interferon-α", "values": [
      {"measurement": "patients achieving a stable state of remission", "setting": "[5]", "value": "approximately 50%"}
    ]}
  ]
}
